Patent US20070077283A1, “METHOD OF ENHANCING TRANSMUCOSAL DELIVERY OF THERAPEUTIC COMPOUNDS” (Nastech Pharmaceutical Company Inc., priority 2005, published 2007)

How the values were obtained:
[1] = tested on: human-derived tracheal/bronchial epithelial cells (EpiAirway Tissue Model); experiment: Cell viability (MTT assay); format: cell-based; settings: for effect on cell viability (MTT assay): compared with control Special Sauce, data not shown (Example 3); for MTT levels (cell viability): compared with PBS negative control (Example 5)
Method: (§1) Cell viability will be assessed using the MTT assay (MTT-100, MatTek kit). This kit measures the uptake and transformation of tetrazolium salt to formazan dye. Thawed and diluted MTT concentrate is prepared 1 hour prior to the end of the dosing period with the lipid by mixing 2 mL of MTT concentrate with 8 mL of MTT diluent. Each cell culture insert is washed twice with PBS containing Ca^+2 and Mg^+2 and then transferred to a new 96-well transport plate containing 100 μL of the mixed MTT solution per well. This 96-well transport plate is then incubated for three hours at 37° C. and 5% CO2. After the three hour incubation, the MTT solution is removed and the cultures are transferred to a second 96-well feeder tray containing 250 μL MTT extractant solution per well. An additional 150 μL of MTT extractan solution was added to the surface of each culture well and the samples sat at room temperature in the dark for a minimum of two hours and maximum of 24 hours. The insert membrane was then pierced with a pipet tip and the solutions in the upper and lower wells were allowed to mix. Two hundred microliters of the mixed extracted solution along with extracted blanks (negative control) was transferred to a 96-well plate for measurement with a microplate reader. The optical density (OD) of the samples was measured at 570 nm with the background subtraction at 650 nm on a plate reader. Cell viability was expressed as a percentage and calculated by dividing the OD readings for treated inserts by the OD readings for the PBS treated inserts and multiplying by 100. For the purposes of this assay, it was assumed that PBS had no effect on cell viability and therefore represented 100% cell viability.

[2] = tested on: human-derived tracheal/bronchial epithelial cells (EpiAirway Tissue Model); experiment: TER recovery / TER time course; format: cell-based; settings: for TER Recovery (ohms) 16 Hours / TER Recovery (ohms) 0 Hour: lipid 1000 μM in Buffer I; for TER Recovery (ohms) 16 Hours: 16 hours post-treatment; for TER Recovery (ohms) 0 Hour: zero hour post-treatment
Method: TER recovery was calculated as described in the above paragraph.
Reversibility is a critical factor in selecting epithelial cell permeabiling enhancers since the barrier function of the epithelial cells serves as the first line of defense against pathogens and the entrance of toxins into the body. The permeation enhancing lipids C16 PAF; C18 PAF; C16 Enantiomeric PAF; POVPC; C16-04: 1 PC and PGPC were incubated with a monolayer of human-derived tracheal/bronchial epithelial cells (EpiAirway™ Model System) and TER […] The lipid glucosyl sphingosine was also tested. Each permeation enhancing lipid (except PGPC) was applied at a concentration of 1000 μM for 15, 30 and 60 minutes. The permeation enhancing lipid PGPC and the lipid glucosyl sphingosine were applied at a concentration of 500 μM for 1, 3, 5, 30 and 60 minutes. TER measurements were taken immediately after each application to determine how quickly each lipid could reduce TER.
[…] […] PBS served as a negative control and Triton-X100™ served as a positive control.
To asses how quickly the cells recovered after application and removal of the permeation enhancing lipid PGPC and the lipid glucosyl sphingosine, TER measurements were taken at 1, 3, 5, 7, and 9 hours post-treamtnet for each of the prior mentioned timed treatments (i.e., 1, 3, 5, 15, 30 and 60 minutes). TER recovery measures the reversibility of the lipid mediated effect on an epithelia. […] Hyptonic PBS served as a negative control for TER reduction and TER recovery.

[3] = tested on: human-derived tracheal/bronchial epithelial cells (EpiAirway Tissue Model); experiment: Insulin permeation across epithelial cell monolayer; format: cell-based; settings: for permeation of insulin (in words): 1000 μM in the presence of Buffer I and Buffer II
Method: Also, the efficacy of a permeation enhancing lipid to enhance the permeation of insulin across and epithelial cell layer was measured. Refer to Example 2 of the instant application for general protocol details. […] Based on the FD3 permeation data in Table 8, the ability of the C16 PAF and C16 Enantiomeric PAF in the presence of Buffers I and II to enhance permeation of the biological agent insulin was assayed. Each lipid was tested at a 1000 μM concentration.

[4] = Cell viability (MTT assay); format: cell-based, human; settings: human; PN159 25 μM / PYY 13.67 mg/mL (High)
Method: as §1

[5] = tested on: human-derived tracheal/bronchial epithelial cells (EpiAirway Tissue Model); experiment: Peptide YY (PYY) permeation across epithelial cell monolayer; format: cell-based
Method: Permeation is expressed as percent permeation and was calculated as follows: [formula] [formula] Terms
In the instant example, the ability of permeation enhancing lipids to enhance the permeation of the biological agent, peptide YY (PYY; molecular weight of 3.7 kDa) across the epithelial cell monolayer model system (EpiAirway™) was measured. Also, the efficacy of a permeation enhancing lipid to enhance the permeation of insulin across and epithelial cell layer was measured. Refer to Example 2 of the instant application for general protocol details.

[6] = after 1, 3, 5, 15 and 30 minute treatments, lipids 500 μM, PN159 25 μM
[7] = after 60 minute treatment, lipids 500 μM, PN159 25 μM
[8] = lipid 500 μM / PYY 13.67 mg/mL (High)

CCCCCCCCCCCCCCCCCCOC[C@H](COP(=O)([O-])OCC[N+](C)(C)C)OC(C)=O [C18-02:0 PC(C18 PAF), 1-O-Octadecyl-2-Acetoyl-sn-Glycero-3-Phosphocholine]
effect on cell viability (MTT assay) [1]: did not reduce cell viability below that of Special Sauce
TER Recovery (ohms) 16 Hours [2]: 497 ohms
TER Recovery (ohms) 0 Hour [2]: 6 ohms

CCCCCCCCCCCCCCCCOC[C@H](COP(=O)([O-])OCC[N+](C)(C)C)OC(C)=O [C16-02:0 PC(C16 PAF), 1-O-Hexadecyl-2-Acetoyl-sn-Glycero-3-Phosphocholine]
effect on cell viability (MTT assay) [1]: did not reduce cell viability below that of Special Sauce
TER Recovery (ohms) 16 Hours [2]: 650 ohms
TER Recovery (ohms) 0 Hour [2]: 9 ohms
permeation of insulin (in words) [3]: enhance the permeation of insulin across an epithelial cell monolayer
permeation of insulin ([3]; lipid 1000 μM (Example 6)): more than 3%
% Insulin Permeation ([3]; lipid 1000 μM in Buffer I): 4%
% Insulin Permeation ([3]; lipid 1000 μM in Buffer II): 8%
% Insulin Permeation ([3]; lipid 1000 μM in PBS): 3%

CC(C)C[C@H](NC(=O)[C@H](C)NC(=O)[C@H](CCCCN)NC(=O)[C@H](CC(C)C)NC(=O)[C@H](C)NC(=O)[C@H](CC(C)C)NC(=O)[C@H](CCCCN)NC(=O)[C@H](CC(C)C)NC(=O)[C@H](C)NC(=O)[C@H](CC(C)C)NC(=O)[C@@H](N)CCCCN)C(=O)N[C@@H](CCCCN)C(=O)N[C@@H](C)C(=O)N[C@@H](C)C(=O)N[C@@H](CC(C)C)C(=O)N[C@@H](CCCCN)C(=O)N[C@@H](CC(C)C)C(=O)N[C@@H](C)C(N)=O [PN159, reference compound]
viability at 25 µM [4]: 89%
time to full TER recovery (PBS control levels) [2, 6]: 2 h
time to full TER recovery (PBS control levels) [2, 7]: 9 h
time to TER reduction ([2]; lipids 500 μM, PN159 25 μM): 10 min
% PYY Permeation ([5]; PN159 25 μM / PYY 13.67 mg/mL (High)): 3.71%

CCCCCCCCCCCCCCCCOC[C@@H](COP(=O)([O-])OCC[N+](C)(C)C)OC(C)=O [C16 Enantiomeric PAF, 3-O-Hexadecyl-2-Acetoyl-sn-Glycero-1-Phosphocholine]
TER Recovery (ohms) 16 Hours [2]: 462 ohms
TER Recovery (ohms) 0 Hour [2]: 9 ohms
permeation of insulin (in words) [3]: enhance the permeation of insulin across an epithelial cell monolayer
% Insulin Permeation ([3]; lipid 1000 μM in Buffer I): 3%
% Insulin Permeation ([3]; lipid 1000 μM in Buffer II): 8%

CCCCCCCCCCCCCCCC(=O)OC[C@H](COP(=O)([O-])OCC[N+](C)(C)C)OC(=O)CCCC(=O)O [PGPC, 1-Palmitoyl-2-Glutaroyl-sn-Glycero-3-Phosphocholine]
MTT levels (cell viability) [1]: MTT levels comparable to that of the PBS negative control
% Cell Viability [1, 8]: 113%
time to full TER recovery (PBS control levels) [2, 6]: fully recovered within one hour
time to full TER recovery (PBS control levels) [2, 7]: did not reach PBS TER control levels until three hours post-treatment
% PYY Permeation [5, 8]: 0.13%

CCCCCCCCCCCCCCCC(=O)OC[C@H](COP(=O)([O-])OCC[N+](C)(C)C)OC(=O)CCCC=O [POVPC, 1-Palmitoyl-2-(5′-oxo-Valeroyl)-sn-Glycero-3-Phosphocholine]
MTT levels (cell viability) [1]: MTT levels comparable to that of the PBS negative control
effect on cell viability (MTT assay) [1]: did not reduce cell viability below that of the control Special Sauce
TER Recovery (ohms) 16 Hours [2]: 508 ohms
TER Recovery (ohms) 0 Hour [2]: 71 ohms

C=CCC(=O)O[C@H](COCCCCCCCCCCCCCCCC)COP(=O)([O-])OCC[N+](C)(C)C [C16-04:1 PC]
effect on cell viability (MTT assay) [1]: did not reduce cell viability below that of Special Sauce
TER Recovery (ohms) 16 Hours [2]: 520 ohms
TER Recovery (ohms) 0 Hour [2]: 10 ohms
